Laboratory results: patent publication US10654807B2, “Toll-like receptor 8 agonists” (The University Of Kansas, priority 2013, dated 2020)
Entries after “also recorded” stand apart in the source; their conditions may differ.

Molecular target: T1, human TLR8 (Homo sapiens, UniProt Q9NR97)
T1 construct: HEK293 cells stably co-transfected with the appropriate hTLR, MD2, and secreted alkaline phosphatase (sAP); expressed in transfected cells; host or cells: HEK293 (HEK-Blue™)
T1 sequence (Q9NR97 27-1041): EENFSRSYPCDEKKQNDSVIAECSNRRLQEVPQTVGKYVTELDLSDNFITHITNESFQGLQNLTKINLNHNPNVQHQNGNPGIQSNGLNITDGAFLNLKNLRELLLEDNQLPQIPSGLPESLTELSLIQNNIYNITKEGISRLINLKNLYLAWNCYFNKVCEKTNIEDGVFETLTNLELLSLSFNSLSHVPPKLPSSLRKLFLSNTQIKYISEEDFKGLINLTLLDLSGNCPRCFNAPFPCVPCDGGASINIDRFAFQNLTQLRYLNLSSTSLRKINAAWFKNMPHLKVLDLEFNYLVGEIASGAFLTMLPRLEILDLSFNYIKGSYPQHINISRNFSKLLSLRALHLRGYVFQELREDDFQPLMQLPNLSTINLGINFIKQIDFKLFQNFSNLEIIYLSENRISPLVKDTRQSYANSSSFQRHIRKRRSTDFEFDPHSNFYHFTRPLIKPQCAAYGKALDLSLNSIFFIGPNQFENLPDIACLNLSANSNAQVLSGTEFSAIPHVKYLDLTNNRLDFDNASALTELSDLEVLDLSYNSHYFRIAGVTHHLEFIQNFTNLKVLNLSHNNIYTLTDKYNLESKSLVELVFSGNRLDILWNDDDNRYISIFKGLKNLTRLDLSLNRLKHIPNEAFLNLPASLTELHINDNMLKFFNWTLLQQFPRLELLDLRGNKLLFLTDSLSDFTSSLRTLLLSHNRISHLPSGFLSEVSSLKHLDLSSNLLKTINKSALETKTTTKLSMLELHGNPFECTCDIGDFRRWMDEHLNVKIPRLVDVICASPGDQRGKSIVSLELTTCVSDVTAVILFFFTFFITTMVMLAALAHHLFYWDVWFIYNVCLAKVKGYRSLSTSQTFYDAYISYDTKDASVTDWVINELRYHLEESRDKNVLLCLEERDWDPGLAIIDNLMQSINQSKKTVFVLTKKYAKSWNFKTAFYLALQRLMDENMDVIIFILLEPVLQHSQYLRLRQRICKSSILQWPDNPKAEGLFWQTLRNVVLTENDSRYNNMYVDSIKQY
Experiment: human TLR8-specific HEK-Blue reporter gene assay (NF-κB induction)
Assay type: cell-based
Conditions: TLR8 primary screen
Excerpt: (§1) Human TLR2/-3/-4/-5/-7/-8/-9 Reporter Gene Assays (NF-κB Induction):
(§2) The induction of NF-κB was quantified using human TLR2/-3/-4/-5/-7/-8/-9-specific HEK-Blue™ reporter gene assays as previously described. HEK293 cells stably co-transfected with the appropriate hTLR, MD2, and secreted alkaline phosphatase (sAP), were maintained in HEK-Blue™ Selection medium containing zeocin and normocin. Stable expression of secreted alkaline phosphatase (sAP) under control of NF-κB/AP-1 promoters is inducible by appropriate TLR agonists, and extracellular sAP in the supernatant is proportional to NF-κB induction.

| Structure (SMILES) | TLR8 agonistic activity |
| --- | --- |
| Nc1nc2ccccc2c2ccoc12 [Compound A8a, furo[2,3-c]quinolin-4-amine] | inactive |
| Cc1cc2c(o1)c(N)nc1ccccc12 [Compound A8b, 2-methylfuro[2,3-c]quinolin-4-amine] | lower agonistic potencies |
| CCCc1cc2c(o1)c(N)nc1ccccc12 [Compound A8c, 2-propylfuro[2,3-c]quinolin-4-amine] | lower agonistic potencies |
| CCCCCc1cc2c(o1)c(N)nc1ccccc12 [Compound A8e, 2-pentylfuro[2,3-c]quinolin-4-amine] | lower agonistic potencies |
| CCCCCCc1cc2c(o1)c(N)nc1ccccc12 [Compound A8f, 2-hexylfuro[2,3-c]quinolin-4-amine] | lower agonistic potencies |
| Nc1nc2ccccc2c2cc(-c3ccccc3)oc12 [Compound A8n, 2-phenylfuro[2,3-c]quinolin-4-amine] | inactive |
| Nc1nc2ccccc2c2cc(Cc3ccccc3)oc12 [Compound A8o, 2-benzylfuro[2,3-c]quinolin-4-amine] | inactive |
| Nc1nc2ccccc2c2cc(CCCO)oc12 [Compound A8r, 3-(4-aminofuro[2,3-c]quinolin-2-yl)propan-1-ol] | do not display TLR8 agonism |
| CC(C)CC(O)c1cc2c(o1)c(N)nc1ccccc12 (centres unmarked) [Compound A8u, 1-(4-aminofuro[2,3-c]quinolin-2-yl)-3-methylbutan-1-ol] | do not display TLR8 agonism |
| CC(O)Cc1cc2c(o1)c(N)nc1ccccc12 (centres unmarked) [Compound A8v, 1-(4-aminofuro[2,3-c]quinolin-2-yl)propan-2-ol] | do not display TLR8 agonism |
| CCCCc1cc2c(nc(N)c3ccccc32)o1 [Compound A18, 2-butylfuro[2,3-c]isoquinolin-5-amine] | inactive |
| CCCc1cc2ccnc(N)c2o1 [Compound A28a, 2-propylfuro[2,3-c]pyridin-7-amine] | retained TLR8-selective agonistic activities; also recorded: feeble activity |
| CCCCc1cc2ccnc(N)c2o1 [Compound A28b, 2-butylfuro[2,3-c]pyridin-7-amine] | retained TLR8-selective agonistic activities; also recorded: feeble activity |

Same assay, conditions: cell-based TLR8-specific NF-κB transactivation assay; read-out: TLR8 agonistic potency EC50

| Structure (SMILES) | EC50 |
| --- | --- |
| CCCc1cc2ccnc(N)c2o1 [Compound A28a, 2-propylfuro[2,3-c]pyridin-7-amine] | 24.4 µM |
| CCCCc1cc2ccnc(N)c2o1 [Compound A28b, 2-butylfuro[2,3-c]pyridin-7-amine] | 46.2 µM |

Same assay, conditions: human TLR8-specific reporter gene assays, Table 1

| Structure (SMILES) | Agonistic Activity EC50 (μM) TLR8 |
| --- | --- |
| CCCCCCc1cc2ccccc2nc1N [Compound 14c, 3-Hexylquinolin-2-amine] | Inactive |
| CCCCCc1c(N)nc2ccccc2c1C [Compound 21a, 4-Methyl-3-pentylquinolin-2-amine] | Inactive^a |
| CCCCCc1c(N)nc2ccccc2c1CC [Compound 21b, 4-Ethyl-3-pentylquinolin-2-amine] | Inactive |
| CCCCCc1c(N)nc2ccccc2c1CCC(C)C [Compound 21c, 4-Isopentyl-3-pentylquinolin-2-amine] | Inactive |
| CCCCOc1cc(N)nc2ccccc12 [Compound 24a, 4-(Butyloxy)quinolin-2-amine] | Inactive |
| CCCCCOc1cc(N)nc2ccccc12 [Compound 24b, 4-(Pentyloxy)quinolin-2-amine] | Inactive |
| CCCCc1cc(N)nc2ccccc12 [Compound 27a, 4-Butylquinolin-2-amine] | Inactive |
| CCCCCc1cc(N)nc2ccccc12 [Compound 27b, 4-Pentylquinolin-2-amine] | Inactive |

Same assay, conditions: human TLR8-specific reporter gene assays, Table 1; read-out: Agonistic Activity EC50 (μM) TLR8

| Structure (SMILES) | EC50 |
| --- | --- |
| CCCCOc1cc2ccccc2nc1N [Compound 6, 3-(Butyloxy)quinolin-2-amine] | 2.18 µM |
| CCCCCOc1cc2ccccc2nc1N [Compound 6d, 3-(Pentyloxy)quinolin-2-amine] | 7 µM |
| CCCCCCOc1cc2ccccc2nc1N [Compound 6e, 3-(Hexyloxy)quinolin-2-amine] | 50 µM |
| CC(C)COc1cc2ccccc2nc1N [Compound 6g, 3-(Isobutyloxy)quinolin-2-amine] | 50 µM |
| CC(C)CCOc1cc2ccccc2nc1N [Compound 6h, 3-(Isopentyloxy)quinolin-2-amine] | 50 µM |
| CCCCNc1cc2ccccc2nc1N [Compound 9, N^3-Butylquinoline-2,3-diamine] | 4.28 µM |
| CCC/C=C/c1cc2ccccc2nc1N [Compound 14d, (E)-3-(Pent-1-en-1-yl)quinolin-2-amine] | 2.67 µM |
| CCCC#Cc1cc2ccccc2nc1N [Compound 14f, 3-(Pent-1-yn-1-yl)quinolin-2-amine] | 13 µM |

Test system: human TLR2, TLR3, TLR4, TLR5, TLR7, TLR9, TLR10, Nod1 and Nod2
Experiment: counter-screens in reporter cell lines specific for other human TLRs and Nod1/2
Assay type: cell-based
Conditions: not given

| Structure (SMILES) | activity in counter-screens / specificity for human TLR8 |
| --- | --- |
| CCCCOc1cc2ccccc2nc1N [Compound 6, 3-(Butyloxy)quinolin-2-amine] | specific for human TLR8 |
| CCCCNc1cc2ccccc2nc1N [Compound 9, N^3-Butylquinoline-2,3-diamine] | specific for human TLR8 |
| CCCCSc1cc2ccccc2nc1N [Compound 12, 3-(Butylthio)quinolin-2-amine] | specific for human TLR8 |

Test system: human peripheral blood mononuclear cells
Experiment: cytokine/chemokine induction in human PBMCs (multiplexed bead array immunoassays)
Assay type: cell-based
Conditions: 41-analyte multiplexed assay, human PBMCs, FIG. 9
Experimental: Immunoassays for Cytokines:
Fresh human peripheral blood mononuclear cells (hPBMC) were isolated from human blood obtained by venipuncture with informed consent and as per institutional guidelines on Ficoll-Hypaque gradients. Aliquots of PBMCs (10^5 cells in 100 μL/well) were stimulated for 12 h with graded concentrations of test compounds. Supernatants were isolated by centrifugation, and were assayed in triplicates using analyte-specific multiplexed cytokine/chemokine bead array assays. PBMC supernatants were also analyzed for 41 chemokines and cytokines (EGF, Eotaxin, FGF-2, Fit-3 ligand, Fractalkine, G-CSF, GM-CSF, GRO, IFN-α2, IFN-γ, IL-10, IL-12 (p40), IL-12 (p70), IL-13, IL-15, IL-17, IL-1ra, IL-1α, IL-1β, IL-2, IL-3, IL-4, IL-5, IL-6, IL-7, IL-8, IL-9, IP-10, MCP-1, MCP-3, MDC (CCL22), MIP-1α, MIP-1β, PDGF-AA, PDGF-AB/BB, RANTES, TGFα, TNF-α, TNF-β, VEGF, sCD40L) using a magnetic bead-based multiplexed assay kit (Milliplex MAP Human Cytokine/Chemokine kit). Data were acquired and processed on a MAGPIX instrument (EMD Millipore, Billerica, Mass.) with an intra-assay coefficients of variation ranging from 4-8% for the 41 analytes.

| Structure (SMILES) | induction of G-CSF, GRO, MIP-1α and MIP-1β |
| --- | --- |
| CCCCc1nc2c(N)nc3ccccc3c2n1Cc1ccccc1 [1-benzyl-2-butyl-1H-imidazo[4,5-c]quinolin-4-amine] | did not |

Same assay, conditions: human PBMCs as well as whole human blood, FIGS. 3A-3T

| Structure (SMILES) | cytokine/chemokine induction profile |
| --- | --- |
| CCCCCc1cc2ccccc2nc1N [Compound 14b, 3-Pentylquinolin-2-amine] | induction of a specific set of chemokines and proinflammatory cytokines, including interleukins 12 and 18 |

Test system: whole human blood
Experiment: proinflammatory cytokine induction in human blood
Assay type: cell-based
Conditions: FIGS. 6A-6D, Compound 2 as reference

| Structure (SMILES) | induction of TNF-α, IL-1β, IL-6 and IL-8 |
| --- | --- |
| CCCCc1cc2c(o1)c(N)nc1ccccc12 [Compound A8d, 2-butylfuro[2,3-c]quinolin-4-amine] | induce TNF-α, IL-β, IL-6 and IL-8 in a dose-dependent manner, albeit with a lower potency than Compound 2 |

Test system: human natural killer cells
Experiment: CD69 upregulation by flow cytometry in whole human blood
Assay type: cell-based
Conditions: 16.5 h, FIG. 8
Experimental: Flow-Cytometric Immunostimulation Experiments:
CD69 upregulation was determined by flow cytometry. Briefly, heparin-anticoagulated whole blood samples were obtained by venipuncture from healthy human volunteers with informed consent and as per guidelines approved by the University of Kansas Human Subjects Experimentation Committee. […] Negative (endotoxin free water) controls were included in each experiment. Following incubation, 200 μL aliquots of anticoagulated whole blood were stained with 20 µL of fluorochrome-conjugated antibodies at 37° C. in the dark for 30 min. For triple color flow cytometry experiments, CD3-PE, CD56-APC, CD69-PE-Cy7 were used to analyze CD69 activation of each of the main peripheral blood lymphocyte populations: natural killer lymphocytes (NK cells: CD3^−CD56^+), cytokine-induced killer phenotype (CIK cells: CD3^+CD56^+), nominal B lymphocytes (CD3^−CD56^−), and nominal T lymphocytes (CD3^+CD56^−). Following staining, erythrocytes were lysed and leukocytes fixed in one step by mixing 200 μL of the samples in 4 mL pre-warmed Whole Blood Lyse/Fix Buffer (Becton-Dickinson Biosciences, San Jose, Calif.). After washing the cells twice at 200 g for 8 minutes in saline, the cells were transferred to a 96-well plate. […]

| Structure (SMILES) | CD69 expression on natural killer lymphocytes |
| --- | --- |
| CCCCc1cc2c(o1)c(N)nc1ccccc12 [Compound A8d, 2-butylfuro[2,3-c]quinolin-4-amine] | absence of natural killer lymphocyte activation; also recorded: absence of CD69 upregulation |

Test system: human ex vivo blood
Experiment: not given
Conditions: transcriptomal profiling

| Structure (SMILES) | IFN-α transcription | induction of proinflammatory cytokine transcripts |
| --- | --- | --- |
| CCCCc1cc2c(o1)c(N)nc1ccccc12 [Compound A8d, 2-butylfuro[2,3-c]quinolin-4-amine] | induced only by Compound 2 | strong induction of proinflammatory cytokine transcripts (including IL-12 and IL-18) |

Test system: TLR7/TLR8
Experiment: not given
Conditions: background statement; cited from earlier work

| Structure (SMILES) | TLR7/TLR8 agonism profile described |
| --- | --- |
| CCCN(CCC)C(=O)C1=Cc2ccc(-c3ccc(C(=O)N4CCCC4)cc3)cc2N=C(N)C1 [VTX-2337] | mixed TLR7/TLR8-agonism |

Test system: human TLR2/3/4/5/7/8/9 and NOD1/2
Experiment: primary screens: panel of reporter gene assays for TLR and NOD modulatory activities
Conditions: human TLR2/3/4/5/7/8/9 and NOD1/2 reporter gene assays
Excerpt: as §1, §2

| Structure (SMILES) | activity in primary screens (reporter gene panel) |
| --- | --- |
| CCOCCc1cc2c(o1)c(N)nc1ccccc12 [Compound A8w, 2-(2-ethoxyethyl)furo[2,3-c]quinolin-4-amine] | none of these compounds were active in any primary screens |
| NCc1cc2c(o1)c(N)nc1ccccc12 [Compound A8x, 2-(aminomethyl)furo[2,3-c]quinolin-4-amine] | none of these compounds were active in any primary screens |
| NCCc1cc2c(o1)c(N)nc1ccccc12 [Compound A8y, 2-(2-aminoethyl)furo[2,3-c]quinolin-4-amine] | none of these compounds were active in any primary screens |
